pIC50: −log10 of the molar value. “Also recorded” adds a separate entry of the source.

One data set concerns Schwann cells. Conditions: cited from earlier work.
For data set [1] the following is noted: mice; dosed orally (b5); listed as compound 21; cited from earlier work.
The next data set has as its system iHCT116 cells. Kind of data set: iHCT116 cell viability with or without ectopic NMNAT1 expression. It is filed as cell-based. From the text:
Second, we screened for resistance to 9 in iHCT116 cells, a system that uses inducible mutagenesis and forward genetics to find compound-resistant mutations and thus can reveal both loss of function and gain of function alleles that suppress activity. The iHCT116 system is a barcoded cell line in which we temporally control mutagenesis by the addition of indole acetic acid (IAA) mediated degradation of the mismatch repair protein MLH1.^12 MLN4924 is a small molecule toxin that we use as a positive control to verify that IAA treatment leads to increased mutations. By degrading MLH1 and increasing the overall mutation rate, IAA treatment increases the frequency of UBA3 mutations, leading to a higher rate of MLN4924 resistance. […] Having previously established a relationship between either NMNAT1 levels or NAMPT activity and compound resistance, we analyzed the levels of both enzymes in multiple resistant clones that harbored unique barcode sequences. […] To test whether reduced NMNAT1 levels in these clones contributed to resistance, we ectopically expressed NMNAT1 in either the parental cells or a representative resistant clone with low NMNAT1 expression.
In 96-well assay plates (Corning #2903), 2,000 cells were plated per well in 100 μL of medium and allowed to adhere overnight. The next day, compounds or Nam suspended in DMSO were dispensed to the assayed wells using a D300e Digital Dispenser (Tecan). All wells were normalized to 0.5% DMSO. 72 hours after incubation at 37 °C in 5% CO2, cell viability was assayed using an ATP-based luminescent viability assay, CellTiter-Glo (Promega #G8462). CellTiter-Glo substrate was mixed 1:1 with phosphate-buffered saline (PBS) supplemented with 1% Triton X-100, and 40 μL of this mixture was added to the assay wells. After the plates were shaken on a microplate shaker for 10 minutes at room temperature, luminescence was recorded using a Synergy 2 Microplate Reader or Cytation 5 plate reader (BioTek). In Prism 9 software (GraphPad), ten-point dose response curves were plotted with baseline-correction to the vehicle control well, and IC50 values were calculated by curve fitting using asymmetric (five parameter), least squares fit.

The nature of data set [2]: Levels of 9 in media and cells over time. The class given is cell-based. The source says: Given that compound 21 (1) and 9 both resemble and are rescued by Nam, and the fact that the NAD salvage pathway is essential for toxicity, we considered that these two compounds may themselves be substrates in the NAD salvage pathway. In this model, we would predict that the compounds would be metabolized in cells, and that excess Nam acting as a competitive substrate would block that metabolism. To test this hypothesis, we measured the total amount of 9 in media and cells over time with or without Nam supplementation.
Prior to the experiment, cells were cultured in low-Nam DMEM for at least 1 passage (3 days) to deplete intracellular Nam. 15,000 cells were plated in a 96-well plate with 100 μL low-Nam media. At appropriate time points, 500 nM 1 or 9, or equal volume of vehicle (DMSO) were added using TECAN. 200 μL of acetonitrile with 0.1% formic acid were added to the assayed wells. […] The supernatants were filtered through 0.2 μm PVDF filters and analyzed by LC-MS/TOF.
Initial evaluation of the stability of 9 in the presence and absence of exogenous Nam was performed using LC-MS/MS analysis with a Sciex TripleQuad™ 4500 (AB SCIEX, Framingham, MA, USA) coupled to a Shimadzu (Columbia, MD) Prominence LC. The compound was detected in positive MRM mode following the transition 204.9 to 79.0. […]

For the molecule `O=C(Nc1cccnc1)c1cccs1` [Compound 1, N-(pyridin-3-yl)thiophene-2-carboxamide], in the data set on Schwann cells, the “toxicity to Schwann cells” value is “nontoxic”. For the same molecule, in data set [1], the bioavailability entry is given as “bioavailable when dosed orally; also recorded: bioavailable in mice”.

`O=C(Nc1cccs1)c1cccnc1` [Compound 9, N-(Thiophen-2-yl)nicotinamide]: the “decrease in IC50 on ectopic NMNAT1 expression” value stood at 1.85 fold with iHCT116 cells (parental iHCT116) and 9.58 fold with iHCT116 cells (resistant clone). The pIC50 is 7.57 in the data set on iHCT116 cells (parental iHCT116, NMNAT1-expression); 7.30 in the data set with iHCT116 cells (parental iHCT116, mock-infected); 6.24 in the data set with iHCT116 cells (representative resistant clone with low NMNAT1 expression); 7.22 with iHCT116 cells (resistant clone with ectopic NMNAT1 expression). The “decrease in levels of 9 with Nam” value in data set [2] (100 μM Nam, 24 hours) is “no appreciable decrease”. The same molecule showed a half-life at 0.5 µM in data set [2] (cells in nam-free dmem, 10% FBS Nam-free DMEM) of around 3.8 h.

The values are drawn from patent US20260356803A1, “Nicotinamide derivatives” (Board of Regents, The University of Texas System, priority 2024, published 2026).
